pIC50: −log10 of the molar value. Where only a bound is given, the exact number is not on record here.

One test concerns the target T1, human glucocorticoid receptor (GR) complex (Homo sapiens, UniProt P04150).
T1 construct: made in house; host or cells: insect expression system (baculovirus lysate)
T1 sequence (P04150 1-777): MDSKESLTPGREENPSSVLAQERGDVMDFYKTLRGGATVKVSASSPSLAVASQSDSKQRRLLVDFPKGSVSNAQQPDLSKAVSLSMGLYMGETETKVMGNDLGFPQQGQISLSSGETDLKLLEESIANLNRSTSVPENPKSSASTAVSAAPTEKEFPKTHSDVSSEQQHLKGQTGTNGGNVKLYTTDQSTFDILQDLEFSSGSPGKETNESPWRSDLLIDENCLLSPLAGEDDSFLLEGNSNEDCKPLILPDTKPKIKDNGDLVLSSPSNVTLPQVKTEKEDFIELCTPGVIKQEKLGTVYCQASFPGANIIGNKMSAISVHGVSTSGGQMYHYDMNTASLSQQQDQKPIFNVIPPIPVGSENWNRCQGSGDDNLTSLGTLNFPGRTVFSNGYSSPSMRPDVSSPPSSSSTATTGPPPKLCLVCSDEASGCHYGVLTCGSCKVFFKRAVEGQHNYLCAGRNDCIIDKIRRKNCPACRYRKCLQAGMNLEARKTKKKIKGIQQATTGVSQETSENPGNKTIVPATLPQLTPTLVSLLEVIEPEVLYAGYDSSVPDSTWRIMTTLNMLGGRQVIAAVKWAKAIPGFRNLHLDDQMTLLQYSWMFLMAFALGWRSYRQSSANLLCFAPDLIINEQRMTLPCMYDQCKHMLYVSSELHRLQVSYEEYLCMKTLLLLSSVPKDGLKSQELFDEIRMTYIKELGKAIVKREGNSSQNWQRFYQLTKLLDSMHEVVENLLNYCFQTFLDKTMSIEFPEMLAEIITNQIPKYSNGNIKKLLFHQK
Kind of test: Glucocorticoid receptor competitive binding assay (fluorescence polarization). Conditions: competition with TAMRA-labeled dexamethasone. Here is the method:
Compounds of the invention were evaluated for binding to the steroid receptor by a fluorescence polarization competitive binding assay. Detailed descriptions for preparation of recombinant glucocorticoid receptor (GR) complex used in the assay is described in U.S. provisional application No. 60/291,877, filed May 18, 2001, and incorporated herein by reference in its entirety. Preparation of the tetramethyl rhodamine (TAMRA)-labeled dexamethasone probe was accomplished using a standard literature procedure (M. Pons et al., J. Steroid Biochem., 1985, 22, pp. 267-273).
A. Glucocorticoid Receptor Competitive Binding Assay
Step 1. Characterization of the Fluorescent Probe
The wavelengths for maximum excitation and emission of the fluorescent probe should first be measured. An example of such a probe is rhodamine (TAMRA)-labeled dexamethasone.
The affinity of the probe for the steroid receptor was then determined in a titration experiment. The fluorescence polarization value of the probe in assay buffer was measured on an SLM-8100 fluorometer using the excitation and emission maximum values described above. Aliquots of expression vector lysate were added and fluorescence polarization was measured after each addition until no further change in polarization value was observed. Non-linear least squares regression analysis was used to calculate the dissociation constant of the probe from the polarization values obtained for lysate binding to the probe.
Step 2. Screeningfor Inhibitors of Probe Binding
(§1) This assay uses fluorescence polarization (FP) to quantitate the ability of test compounds to compete with tetramethyl rhodamine (TAMRA)-labeled dexamethasone for binding to a human glucocorticoid receptor (GR) complex prepared from an insect expression system. The assay buffer was: 10 mM TES, 50 mM KCl, 20 mM Na2MoO4.2H2O, 1.5 mM EDTA, 0.04% w/v CHAPS, 10% v/v glycerol, 1 mM dithiothreitol, pH 7.4. Test compounds were dissolved to 1 mM in neat DMSO and then further diluted to 10×assay concentration in assay buffer supplemented with 10% v/v DMSO. Test compounds were serially diluted at 10×assay concentrations in 10% DMSO-containing buffer in 96-well polypropylene plates. Binding reaction mixtures were prepared in 96-well black Dynex microtiter plates by sequential addition of the following assay components to each well: 15 μL of 10×test compound solution, 85 μL of GR-containing baculovirus lysate diluted 1:170 in assay buffer, and 50 μL of 15 nM TAMRA-labeled dexamethasone. Positive controls were reaction mixtures containing no test compound; negative controls (blanks) were reaction mixtures containing 0.7 μM to 2 μM dexamethasone. The binding reactions were incubated for 1 hour at room temperature and then read for fluorescence polarization in the LJL Analyst set to 550 nm excitation and 580 nm emission, with the Rhodamine 561 dichroic mirror installed. IC50 values were determined by iterative non-linear curve fitting of the FP signal data to a 4-parameter logistic equation.
Background: In fluorescence polarisation assays a small probe gives low polarisation when free and higher when bound to something large.
For orientation: pIC50 means −log10 of the IC50, conventionally taken in molar units. In the case of `COc1ccc(F)cc1C(C)(C)CC(O)(Cc1ccc(C#N)cc1)C(F)(F)F` (stereo not shown) [4-[4-(5-Fluoro-2-methoxyphenyl)-2-hydroxy-4-methyl-2-trifluoromethylpentyl]benzonitrile], the pIC50 was at least 7.00. In turn, `CC(C)(CC(O)(Cc1cc(F)cc(C(F)(F)F)c1)C(F)(F)F)c1cc(F)ccc1O` (stereo not shown) [4-Fluoro-2-[4,4,4-trifluoro-3-(3-fluoro-5-trifluoromethylbenzyl)-3-hydroxy-1,1-dimethylbutyl]phenol] showed a pIC50 of at least 7.00. In turn, `Cc1cccc(CC(O)(CC(C)(C)c2cc(F)ccc2O)C(F)(F)F)c1` (stereo not shown) [4-Fluoro-2-[4,4,4-trifluoro-3-hydroxy-1,1-dimethyl-3-(3-methylbenzyl)butyl]phenol] gave a pIC50 of at least 7.00. In turn, `COc1ccc(F)cc1C(C)(C)CC(O)(Cc1cccc(Cl)c1F)C(F)(F)F` (stereo not shown) [2-(3-Chloro-2-fluorobenzyl)-1,1,1-trifluoro-4-(5-fluoro-2-methoxyphenyl)-4-methylpentan-2ol] showed a pIC50 of at least 7.00. Turning to `CC(C)(CC(O)(Cc1ccc(Cl)cc1)C(F)(F)F)c1cc(F)ccc1O` (stereo not shown) [2-[3-(4-Chlorobenzyl)-4,4,4-trifluoro-3-hydroxy-1,1-dimethylbutyl]-4-fluorophenol], the pIC50 was at least 7.00.

For the molecule `CC(C)(CC(O)(Cc1cc(Cl)cc(Cl)c1)C(F)(F)F)c1ccccc1` (stereo not shown) [2-(3,5-Dichlorobenzyl)-1,1,1-trifluoro-4-methyl-4-phenylpentan-2-ol], the pIC50 was at least 7.00.

The test system of the next test is glucocorticoid receptor. Description: One or more of the above assays (GR binding and GR cell assays; not specified which). The format is cell-based. Conditions: in one or more of the above assays. Here is the method: as §1, with “Binding reaction mixtures were prepared in 96-well black Dynex microtiter plates by sequential addition of the following assay components to each well: 15 μL of 10×test compound solution, 85 μL of GR-containing baculovirus lysate diluted 1:170 in assay buffer, and 50 μL of 15 nM TAMRA-labeled dexamethasone.” left out, “The binding reactions were incubated for 1 hour at room temperature and then read for fluorescence polarization in the LJL Analyst set to 550 nm excitation and 580 nm emission, with the Rhodamine 561 dichroic mirror installed.” left out
B. Glucocorticoid Receptor Cell Assays
1. Induction of Aromatase in Fibroblasts (Cell Assay for Transactivation)
Dexamethasone, a synthetic ligand to the glucocorticoid receptor (GR), induces expression of aromatase in human foreskin fibroblast cells. The activity of aromatase is measured by the conversion of testosterone to estradiol in culture media.
On the day of the experiment, the media in the wells is replaced with fresh media. Cells are treated with test compounds to final concentrations of 10^−5 M to 10 ^−8 M, and testosterone to a final concentration of 300 ng/mL. Each well has a total volume of 100 μL. Samples are made in duplicates. Control wells include: (a) wells that receive testosterone only, and (b) wells that receive testosterone plus 2 μM of dexamethasone to provide maximum induction of aromatase. Plates are incubated at 37° C. overnight (15 to 18 hours), and supernatants are harvested at the end of incubation. […] The amount of estradiol is inversely proportional to the ELISA signals in each well. The extent of aromatase induction by test compounds is expressed as a relative percentage to dexamethasone. EC50 values of test compounds are derived by non-linear curve fitting.
2. Inhibition of IL-6 Production in Fibroblasts (Cell Assay for Transrepression)
Human foreskin fibroblast cells produce IL-6 in response to stimulation by pro-inflammatory cytokine IL-1.
On the next day, media in the wells is replaced with fresh media. Cells are treated with IL-1 (rhIL-1α, R&D Systems Cat. No. 200-LA) to a final concentration of 1 ng/mL, and with test compounds to final concentrations of 10 ^−5 M to 10 ^−8 M, in a total volume of 200 μL per well. Samples are done in duplicates. […] Positive control wells receive IL-1 only and represent maximum (or 100%) amount of IL-6 production. Plates are incubated at 37° C. overnight (15 to 18 hours), and supernatants are harvested at the end of incubation. IL-6 levels in the supernatants are determined by the ELISA kits for IL-6 (MedSystems Diagnostics GmbH, Vienna, Austria, Cat. No. BMS213TEN) according to manufacture's instructions. The extent of inhibition of IL-6 by test compounds is expressed in percentage relative to positive controls. IC50 values of test compounds are derived by non-linear curve fitting.
Evaluation of agonist or antagonist activity of compounds binding to the glucocorticoid receptor may be determined by any of the assays.
3. Modulation of Tyrosine Aminotransferase (TAT) Induction in Rat Hepatoma Cells
Testing of compounds for agonist or antagonist activity in induction of tyrosine aminotransferase (TAT) in rat hepatoma cells.
H4-II-E-C3 cells were incubated overnight in 96 well plates (20,000 cells/100 μL/well) in MEM medium containing 10% heat inactivated FBS and 1% nonessential amino acids. On the next day, cells were stimulated with the indicated concentrations of dexamethasone or test compound (dissolved in DMSO, final DMSO concentration 0.2%) for 18 hours. Control cells were treated with 0.2% DMSO.
As to `COc1cccc(C(C)(C)CC(O)(Cc2ccc(C#N)cc2Cl)C(F)(F)F)c1` (stereo not shown) [3-Chloro-4-[2-hydroxy-4-(3-methoxyphenyl)-4-methyl-2-trifluoromethylpentyl]benzonitrile], the “activity as agonists of the glucocorticoid receptor function” value (“activity” below) is recorded as “activity as agonists”. The same measure, in the same setting: then `Cc1ccccc1C(C)(C)CC(O)(Cc1ccc(C#N)cc1Cl)C(F)(F)F` (stereo not shown) [3-Chloro-4-(2-hydroxy-4-methyl-4-o-tolyl-2-trifluoromethylpentyl)benzonitrile], with “activity as agonists”; and `CC(C)(CC(O)(Cc1ccc(C#N)cc1Cl)C(F)(F)F)c1ccc(F)cc1` (stereo not shown) [3-Chloro-4-[4-(4-fluorophenyl)-2-hydroxy-4-methyl-2-trifluoromethylpentyl]benzonitrile], with “activity as agonists”; and `CC(C)(CC(O)(Cc1ccc(C#N)c2ccccc12)C(F)(F)F)c1cccc2c1OCC2` (stereo not shown) [4-[4-(2,3-Dihydrobenzofuran-7-yl)-2-hydroxy-4-methyl-2-trifluoromethylpentyl]naphthalene-1-carbonitrile], with “activity as agonists”. On the same count and under the same terms, the value for `Cc1cc(CC(O)(CC(C)(C)c2cc(F)ccc2O)C(F)(F)F)cc(C)c1C#N` (stereo not shown) [4-[4-(5-Fluoro-2-hydroxyphenyl)-2-hydroxy-4-methyl-2-trifluoromethylpentyl]-2,6-dimethylbenzonitrile] was “activity as agonists”. Same read-out and setting: then `COc1ccc(F)cc1C(C)(C)CC(O)(Cc1ccc(C=O)cc1Cl)C(F)(F)F` (stereo not shown) [3-Chloro-4-[4-(5-fluoro-2-methoxyphenyl)-2-hydroxy-4-methyl-2-trifluoromethylpentyl]benzaldehyde], with “activity as agonists”. `CC(C)(CC(O)(Cc1ccc(C#N)cc1Cl)C(F)(F)F)c1ccc(F)cc1O` (stereo not shown) [3-Chloro-4-[4-(4-fluoro-2-hydroxyphenyl)-2-hydroxy-4-methyl-2-trifluoromethylpentyl]benzonitrile]: the “activity” value is reported as “activity as agonists”.

Consider `Cc1cccc(C(C)(C)CC(O)(Cc2ccc(C#N)cc2Cl)C(F)(F)F)c1` (stereo not shown) [3-Chloro-4-(2-hydroxy-4-methyl-4-m-tolyl-2-trifluoromethylpentyl)benzonitrile], for which the “activity” value is “activity as agonists”. As for `CC(C)(CC(O)(Cc1ccc(C#N)cc1Cl)C(F)(F)F)c1ccc2ccccc2c1` (stereo not shown) [3-Chloro-4-(2-hydroxy-4-methyl-4-naphthalen-2-yl-2-trifluoromethylpentyl)benzonitrile], the “activity” value is reported as “activity as agonists”. `COc1cc(F)ccc1C(C)(C)CC(O)(Cc1ccc(C#N)cc1Cl)C(F)(F)F` (stereo not shown) [3-Chloro-4-[4-(4-fluoro-2-methoxyphenyl)-2-hydroxy-4-methyl-2-trifluoromethylpentyl]benzonitrile]: the “activity” value was “activity as agonists”.

The values are drawn from patent US7268152B2, “Glucocorticoid mimetics, methods of making them, pharmaceutical compositions, and uses thereof” (Boehringer Ingelheim Pharmaceuticals, Inc., priority 2002, dated 2007).
